From ChEMBL document CHEMBL1671626, “In vitro profiling of ceftaroline against a collection of recent bacterial clinical isolates from across the United States” (2008)
Converted amounts (≈) assume the structure as drawn.

Key:
Format in all cases: functional
Staphylococcus aureus [1] = assay: Antibacterial activity against coagulase-negative and oxacillin-resistant Staphylococcus aureus by CLSI M7-A7 broth microdilution method
Streptococcus pyogenes [2] = assay: Antibacterial activity against erythromycin-susceptible Streptococcus pyogenes by CLSI M7-A7 broth microdilution method
Enterococcus faecalis [3] = assay: Antibacterial activity against vancomycin-resistant Enterococcus faecalis assessed as resistant isolates by CLSI M7-A7 broth microdilution method
Staphylococcus aureus [4] = assay: Antibacterial activity against coagulase-negative and oxacillin-susceptible Staphylococcus aureus assessed as susceptible isolates by CLSI M7-A7 broth microdilution method
Moraxella catarrhalis = assay: Antibacterial activity against beta lactamase-positive Moraxella catarrhalis by CLSI M7-A7 broth microdilution method
Staphylococcus aureus [5] = assay: Antibacterial activity against methicillin-susceptible Staphylococcus aureus by CLSI M7-A7 broth microdilution method
Streptococcus viridans [6] = assay: Antibacterial activity against penicillin-nonsusceptible Streptococcus viridans assessed as resistant isolates by CLSI M7-A7 broth microdilution method
Pasteurella multocida = assay: Antibacterial activity against Pasteurella multocida by CLSI M7-A7 broth microdilution method
Streptococcus agalactiae [7] = assay: Antibacterial activity against erythromycin-susceptible Streptococcus agalactiae assessed as susceptible isolates by CLSI M7-A7 broth microdilution method
Enterococcus faecium [8] = assay: Antibacterial activity against vancomycin-resistant Enterococcus faecium assessed as susceptible isolates by CLSI M7-A7 broth microdilution method
Streptococcus agalactiae [9] = assay: Antibacterial activity against erythromycin-nonsusceptible Streptococcus agalactiae by CLSI M7-A7 broth microdilution method
Streptococcus viridans [10] = assay: Antibacterial activity against penicillin-susceptible Streptococcus viridans by CLSI M7-A7 broth microdilution method
Staphylococcus aureus [11] = assay: Antibacterial activity against coagulase-negative and oxacillin-susceptible Staphylococcus aureus by CLSI M7-A7 broth microdilution method
Enterococcus faecalis [12] = assay: Antibacterial activity against vancomycin-resistant Enterococcus faecalis by CLSI M7-A7 broth microdilution method
Streptococcus agalactiae [13] = assay: Antibacterial activity against erythromycin-susceptible Streptococcus agalactiae by CLSI M7-A7 broth microdilution method
Streptococcus viridans [14] = assay: Antibacterial activity against penicillin-nonsusceptible Streptococcus viridans assessed as susceptible isolates by CLSI M7-A7 broth microdilution method
Streptococcus agalactiae [15] = assay: Antibacterial activity against erythromycin-nonsusceptible Streptococcus agalactiae assessed as susceptible isolates by CLSI M7-A7 broth microdilution method
Staphylococcus aureus [16] = assay: Antibacterial activity against methicillin-susceptible Staphylococcus aureus assessed as susceptible isolates by CLSI M7-A7 broth microdilution method
Enterococcus faecalis [17] = assay: Antibacterial activity against vancomycin-susceptible Enterococcus faecalis assessed as resistant isolates by CLSI M7-A7 broth microdilution method
Enterococcus faecalis [18] = assay: Antibacterial activity against vancomycin-susceptible Enterococcus faecalis by CLSI M7-A7 broth microdilution method
Enterococcus faecium [19] = assay: Antibacterial activity against vancomycin-resistant Enterococcus faecium assessed as resistant isolates by CLSI M7-A7 broth microdilution method
Staphylococcus aureus [20] = assay: Antibacterial activity against methicillin-resistant Staphylococcus aureus by CLSI M7-A7 broth microdilution method
Streptococcus viridans [21] = assay: Antibacterial activity against penicillin-nonsusceptible Streptococcus viridans by CLSI M7-A7 broth microdilution method
Streptococcus viridans [22] = assay: Antibacterial activity against penicillin-susceptible Streptococcus viridans assessed as susceptible isolates by CLSI M7-A7 broth microdilution method
Streptococcus viridans [23] = assay: Antibacterial activity against penicillin-susceptible Streptococcus viridans assessed as resistant isolates by CLSI M7-A7 broth microdilution method
Streptococcus pneumoniae [24] = assay: Antibacterial activity against penicillin-susceptible Streptococcus pneumoniae assessed as susceptible isolates by CLSI M7-A7 broth microdilution method
Streptococcus pyogenes [25] = assay: Antibacterial activity against erythromycin-nonsusceptible Streptococcus pyogenes assessed as susceptible isolates by CLSI M7-A7 broth microdilution method
Enterococcus faecium [26] = assay: Antibacterial activity against vancomycin-resistant Enterococcus faecium by CLSI M7-A7 broth microdilution method
Streptococcus pyogenes [27] = assay: Antibacterial activity against erythromycin-nonsusceptible Streptococcus pyogenes by CLSI M7-A7 broth microdilution method
Streptococcus pyogenes [28] = assay: Antibacterial activity against erythromycin-susceptible Streptococcus pyogenes assessed as susceptible isolates by CLSI M7-A7 broth microdilution method
Staphylococcus aureus [29] = assay: Antibacterial activity against coagulase-negative and oxacillin-resistant Staphylococcus aureus assessed as susceptible isolates by CLSI M7-A7 broth microdilution method
Enterococcus faecalis [30] = assay: Antibacterial activity against vancomycin-susceptible Enterococcus faecalis assessed as susceptible isolates by CLSI M7-A7 broth microdilution method
Streptococcus pneumoniae [31] = assay: Antibacterial activity against penicillin-susceptible Streptococcus pneumoniae by CLSI M7-A7 broth microdilution method
Staphylococcus aureus [32] = assay: Antibacterial activity against methicillin-resistant Staphylococcus aureus assessed as susceptible isolates by CLSI M7-A7 broth microdilution method
Streptococcus pneumoniae [33] = assay: Antibacterial activity against penicillin-resistant Streptococcus pneumoniae by CLSI M7-A7 broth microdilution method

SMILES: CC(=O)NC[C@H]1CN(c2ccc(N3CCOCC3)c(F)c2)C(=O)O1 [LINEZOLID]
- MIC50 (Staphylococcus aureus [1]): 1 µg/mL (≈ 2.96 µM)
- MIC90 (Staphylococcus aureus [1]): 2 µg/mL (≈ 5.93 µM)
- MIC50 (Streptococcus pyogenes [2]): 1 µg/mL (≈ 2.96 µM)
- MIC90 (Streptococcus pyogenes [2]): 1 µg/mL (≈ 2.96 µM)
- Activity (Enterococcus faecalis [3]): 0%
- Activity (Staphylococcus aureus [4]): 100%
- MIC50 (Moraxella catarrhalis): 4 µg/mL (≈ 11.9 µM)
- MIC90 (Moraxella catarrhalis): 4 µg/mL (≈ 11.9 µM)
- MIC50 (Staphylococcus aureus [5]): 2 µg/mL (≈ 5.93 µM)
- MIC90 (Staphylococcus aureus [5]): 2 µg/mL (≈ 5.93 µM)
- Activity (Streptococcus viridans [6]): 0%
- MIC50 (Pasteurella multocida): 4 µg/mL (≈ 11.9 µM)
- MIC90 (Pasteurella multocida): > 4 µg/mL
- Activity (Streptococcus agalactiae [7]): 100%
- Activity (Enterococcus faecium [8]): 100%
- MIC50 (Streptococcus agalactiae [9]): 1 µg/mL (≈ 2.96 µM)
- MIC90 (Streptococcus agalactiae [9]): 1 µg/mL (≈ 2.96 µM)
- MIC50 (Streptococcus viridans [10]): 1 µg/mL (≈ 2.96 µM)
- MIC90 (Streptococcus viridans [10]): 1 µg/mL (≈ 2.96 µM)
- MIC50 (Staphylococcus aureus [11]): 1 µg/mL (≈ 2.96 µM)
- MIC90 (Staphylococcus aureus [11]): 2 µg/mL (≈ 5.93 µM)
- MIC50 (Enterococcus faecalis [12]): 2 µg/mL (≈ 5.93 µM)
- MIC90 (Enterococcus faecalis [12]): 2 µg/mL (≈ 5.93 µM)
- MIC (Streptococcus agalactiae [13]): 1 µg/mL (≈ 2.96 µM)
- MIC50 (Streptococcus agalactiae [13]): 1 µg/mL (≈ 2.96 µM)
- MIC90 (Streptococcus agalactiae [13]): 1 µg/mL (≈ 2.96 µM)
- Activity (Streptococcus viridans [14]): 100%
- Activity (Streptococcus agalactiae [15]): 100%
- Activity (Staphylococcus aureus [16]): 100%
- Activity (Enterococcus faecalis [17]): 0%
- MIC50 (Enterococcus faecalis [18]): 2 µg/mL (≈ 5.93 µM)
- MIC90 (Enterococcus faecalis [18]): 2 µg/mL (≈ 5.93 µM)
- Activity (Enterococcus faecium [19]): 0%
- MIC50 (Staphylococcus aureus [20]): 2 µg/mL (≈ 5.93 µM)
- MIC90 (Staphylococcus aureus [20]): 2 µg/mL (≈ 5.93 µM)
- MIC50 (Streptococcus viridans [21]): 1 µg/mL (≈ 2.96 µM)
- MIC90 (Streptococcus viridans [21]): 1 µg/mL (≈ 2.96 µM)
- Activity (Streptococcus viridans [22]): 100%
- Activity (Streptococcus viridans [23]): 0%
- Activity (Streptococcus pneumoniae [24]): 100%
- Activity (Streptococcus pyogenes [25]): 100%
- MIC50 (Enterococcus faecium [26]): 2 µg/mL (≈ 5.93 µM)
- MIC90 (Enterococcus faecium [26]): 2 µg/mL (≈ 5.93 µM)
- MIC (Streptococcus pyogenes [27]): 1 µg/mL (≈ 2.96 µM)
- MIC50 (Streptococcus pyogenes [27]): 1 µg/mL (≈ 2.96 µM)
- MIC90 (Streptococcus pyogenes [27]): 1 µg/mL (≈ 2.96 µM)
- Activity (Streptococcus pyogenes [28]): 100%
- Activity (Staphylococcus aureus [29]): 99.3%
- Activity (Enterococcus faecalis [30]): 100%

SMILES: CCCCCCCCCC(=O)N[C@@H](Cc1c[nH]c2ccccc12)C(=O)N[C@H](CC(N)=O)C(=O)N[C@@H](CC(=O)O)C(=O)N[C@@H]1C(=O)NCC(=O)N[C@@H](CCCN)C(=O)N[C@@H](CC(=O)O)C(=O)N[C@H](C)C(=O)N[C@@H](CC(=O)O)C(=O)NCC(=O)N[C@H](CO)C(=O)N[C@@H]([C@H](C)CC(=O)O)C(=O)N[C@@H](CC(=O)c2ccccc2N)C(=O)O[C@@H]1C
- MIC50 (Staphylococcus aureus [1]): 0.5 µg/mL (≈ 0.309 µM)
- MIC90 (Staphylococcus aureus [1]): 0.5 µg/mL (≈ 0.309 µM)
- MIC (Streptococcus pyogenes [2]): ≤ 0.03 µg/mL
- MIC50 (Streptococcus pyogenes [2]): ≤ 0.03 µg/mL
- MIC90 (Streptococcus pyogenes [2]): 0.06 µg/mL (≈ 0.037 µM)
- Activity (Enterococcus faecalis [3]): 0%
- Activity (Staphylococcus aureus [4]): 100%
- MIC50 (Streptococcus pneumoniae [31]): 0.06 µg/mL (≈ 0.037 µM)
- MIC90 (Streptococcus pneumoniae [31]): 0.12 µg/mL (≈ 0.074 µM)
- MIC50 (Staphylococcus aureus [5]): 0.25 µg/mL (≈ 0.154 µM)
- MIC90 (Staphylococcus aureus [5]): 0.5 µg/mL (≈ 0.309 µM)
- Activity (Streptococcus viridans [6]): 0%
- Activity (Staphylococcus aureus [32]): 99.2%
- Activity (Streptococcus agalactiae [7]): 100%
- Activity (Enterococcus faecium [8]): 100%
- MIC50 (Streptococcus agalactiae [9]): 0.12 µg/mL (≈ 0.074 µM)
- MIC90 (Streptococcus agalactiae [9]): 0.25 µg/mL (≈ 0.154 µM)
- MIC50 (Streptococcus viridans [10]): 0.25 µg/mL (≈ 0.154 µM)
- MIC90 (Streptococcus viridans [10]): 0.5 µg/mL (≈ 0.309 µM)
- MIC50 (Staphylococcus aureus [11]): 0.25 µg/mL (≈ 0.154 µM)
- MIC90 (Staphylococcus aureus [11]): 0.5 µg/mL (≈ 0.309 µM)
- MIC50 (Enterococcus faecalis [12]): 0.5 µg/mL (≈ 0.309 µM)
- MIC90 (Enterococcus faecalis [12]): 1 µg/mL (≈ 0.617 µM)
- MIC50 (Streptococcus agalactiae [13]): 0.12 µg/mL (≈ 0.074 µM)
- MIC90 (Streptococcus agalactiae [13]): 0.12 µg/mL (≈ 0.074 µM)
- Activity (Streptococcus viridans [14]): 100%
- Activity (Streptococcus agalactiae [15]): 100%
- Activity (Staphylococcus aureus [16]): 99.4%
- Activity (Enterococcus faecalis [17]): 0%
- MIC50 (Enterococcus faecalis [18]): 1 µg/mL (≈ 0.617 µM)
- MIC90 (Enterococcus faecalis [18]): 1 µg/mL (≈ 0.617 µM)
- Activity (Enterococcus faecium [19]): 0%
- MIC50 (Streptococcus pneumoniae [33]): 0.06 µg/mL (≈ 0.037 µM)
- MIC90 (Streptococcus pneumoniae [33]): 0.12 µg/mL (≈ 0.074 µM)
- MIC50 (Staphylococcus aureus [20]): 0.25 µg/mL (≈ 0.154 µM)
- MIC90 (Staphylococcus aureus [20]): 0.5 µg/mL (≈ 0.309 µM)
- MIC50 (Streptococcus viridans [21]): 0.25 µg/mL (≈ 0.154 µM)
- MIC90 (Streptococcus viridans [21]): 0.5 µg/mL (≈ 0.309 µM)
- Activity (Streptococcus viridans [22]): 100%
- Activity (Streptococcus pyogenes [25]): 100%
- MIC50 (Enterococcus faecium [26]): 2 µg/mL (≈ 1.23 µM)
- MIC90 (Enterococcus faecium [26]): 4 µg/mL (≈ 2.47 µM)
- MIC (Streptococcus pyogenes [27]): ≤ 0.03 µg/mL
- MIC50 (Streptococcus pyogenes [27]): ≤ 0.03 µg/mL
- MIC90 (Streptococcus pyogenes [27]): 0.25 µg/mL (≈ 0.154 µM)
- Activity (Streptococcus pyogenes [28]): 100%
- Activity (Staphylococcus aureus [29]): 99.7%
- Activity (Enterococcus faecalis [30]): 100%
